Series [1] deals with Candida albicans TIMM1623. The series is described as follows: Mouse Candida infection model test (oral administration). The following applies: 1 mg/kg orally for 7 days from 2 hours after infection, cyclophosphamide-compromised mice, observed 21 days after infection. It counts as in vivo. As to the method: Candida albicans TIMM1623 on a SDA plate, which had been cultured overnight at 35° C. was suspended in a sterilized physiological saline, which was then diluted to prepare a suspension of inoculum organism. To make mice in a transiently compromised state, cyclophosphamide was intraperitoneally administered at 200 mg/kg 4 days before infection and at 100 mg/kg the next day after infection. Into the tail vein of mice was inoculated 0.2 mL of the prepared solution of inoculum Candida albicans TIMM1623 to induce infection (about 3×10^4 CFU/mouse). The test compound was suspended in 0.5% methylcellulose and orally administered at 1 mg/kg of mouse body weight. The treatment was started from 2 hours after infection and carried out for 7 days.

Series [2] in a line: Repeated-dose toxicity test in mice (2), hematological test. In kind it is in vivo. The following applies: value when control group is set to 100, male ICR mice. As to the method:
(§1) Six-week old male ICR mice (body weight range: 27.4 to 33.7 g, the number of animals allocated to each group: 5) were used to examine the repeated-dose toxicity. A solution of each test compound was prepared by dissolution in 0.1 mol/L hydrochloric acid. Each compound was subcutaneously administered at a dose of 6.25 or 3.13 mg/kg once a day for 14 days. A sterilized physiological saline was administered to a control group. At the end of the administration period, each mouse was anesthetized with ether. An injection syringe containing a heparin solution (Novo-Heparin Injection 1000, Aventis Pharma K.K.) as an anticoagulant was used for blood collection from abdominal portion of vena cava. A hematological test was carried out for the following items.
(§2) (Hematological Test Items and Determination Methods)
(§3) Red blood cell count (RBC): Two-angle laser flow cytometry
(§4) Reticulocyte count: Flow cytometry after RNA staining

Series [3] concerns Candida albicans TIMM1623. Put plainly: Antifungal action: susceptibility testing of fungi by microbroth dilution method. The following applies: Candida albicans TIMM1623, RPMI/MOPS pH 7.0, 35° C., 48 hours, 50% growth inhibition. It counts as cell-based. As to the method: Susceptibility testing of fungi was carried out using a microbroth dilution method. The medium used in the susceptibility test was RPMI1640 (RPMI/MOPS) adjusted to pH 7.0 employing 0.165 mol/L morpholinepropanesulfonic acid (MOPS) and 1.0 mol/L sodium hydroxide. A test compound was dissolved in sterile water, which was then subjected to two-fold serial dilution using 100 μL of RPMI/MOPS on a 96-well round bottom plate. Candida albicans TIMM1623 cultured overnight at 35° C. on Sabouraud agar medium was suspended in a sterilized physiological saline. The number of cells was counted under a biological microscope; a suspension of inoculum organism 2×10^3 cells/mL) was prepared using RPMI/MOPS, and 100 μL thereof was then dispensed into each well; and a microplate containing a predetermined concentration of the test compound, the medium, and fungal cells was finally prepared. The plate was cultured at 35° C. for 48 hours. After the end of cultivation, absorbance was determined at 630 nm using an automatic spectrophotometer. The lowest test compound concentration at which 50% growth inhibition was observed as compared to growth control where no test compound was added was defined as IC50.
Background: Dilution methods test growth across graded concentrations, often in twofold steps.

Series [4] is described as follows: Repeated-dose toxicity test in mice (1), hematological test. In kind it is in vivo. The following applies: value when control group is set to 100; 6.25 mg/kg subcutaneously once a day for 7 days, male ICR mice. The method, then:
as §1, with “weight range: 30.6 to 34.8” for “weight range: 27.4 to 33.7”, “30.6 to 34.8 g, the” for “27.4 to 33.7 g, the”, “dissolution in distilled water. Each compound” for “dissolution in 0.1 mol/L hydrochloric acid. Each compound”, “of 6.25 mg/kg once” for “of 6.25 or 3.13 mg/kg once”, “day for 7 days. A” for “day for 14 days. A”, “portion of the vena cava.” for “portion of vena cava.”
as §2, §3, §4

Series [5] is described as follows: Vero cell proliferation inhibition test (XTT assay). In kind it is cell-based. The following applies: African green monkey, Vero cells, concentration inhibiting cell proliferation by 50%. As to the method: The cytotoxicity of each compound was evaluated using Vero cells. Each test compound was dissolved in dimethylsulfoxide (DMSO), which was then subjected to serial dilution with 10% FBS-containing E'MEM and added to a 96-well plate. The cells were suspended in 10% FBS-containing E'MEM, inoculated in an amount of 3,000 cells/well (96-well plate), and cultured in a CO2 incubator at 37° C. for 3 days. The degree of growth of Vero cells was evaluated using a 2,3-bis-(2-methoxy-4-nitro-5-sulfophenyl)-5-[(phenylamino)carbonyl]-2H-tetrazolium=inner salt=monosodium salt (XTT) assay. Thus, an XTT solution containing 1 mg/mL XTT and 25 μmol/L phenazine=methosulfate (PMS) was added to each well, which was then incubated in a CO2 incubator for 2 hours, followed by determining the absorbance of the well at 450 nm (reference: 655 nm) using a micro plate reader. The absorbance ratio between the control (no added compound) and each of the wells was calculated, and the concentration (CC50; μg/mL) of compound inhibiting cell proliferation by 50% was computed.
In general terms: Formazan colour is commonly taken as a measure of viable cells.

Series [6] is described as follows: Hygroscopicity test (1): storage at relative humidity of 75% for one week. In kind it is physicochemical. The method, then:
The compound of Example 4 and the comparative compound were stored under conditions of room temperature and a relative humidity of 75% or 60° C. and a relative humidity of 75% for one week.

A short description of series [7]: Hygroscopicity test (3): storage at 60° C. and relative humidity of 100% for one week. The following applies: relative humidity of 100%. In kind it is physicochemical. As to the method: The compound of Example 10 and the comparative compound were stored under conditions of 60° C. and a relative humidity of 100% for one week. As a result, the comparative compound deliquesced.

Series [8] has as its system Trichomonas vaginalis CDC337. Put plainly: Antiprotozoan action. It counts as cell-based. As to conditions: 48 h. As to the method:
Trichomonas vaginalis CDC337 was cultured in a Diamond's trypticase-yeast-maltose medium (pH 6.8) containing 8% fetal bovine serum (FBS). The protozoan bodies which had been cultured 37° C. for 2 days were centrifuged (1,500 rpm, 10 minutes) and subjected to medium replacement with a fresh medium before adjustment to 2×10^4 bodies/mL, followed by dispensing them in an amount of 100 μL/well in a micro plate (96-well, flat bottom). The test compound was dissolved using 0.1 mol/L hydrochloric acid, which was then diluted to a predetermined concentration with the medium, followed by dispensing 100 μL/well thereof into a micro plate. The minimal test compound concentration at which the movement of the bodies was not observed after culture 37° C. under anaerobic conditions for 2 days was defined as MIC.

The mark [9] stands for this setting: 3.13 mg/kg subcutaneously once a day for 14 days.

SMILES strings stand for the structures. Counter-ions that a name gives are not always drawn.

Compound `NC(=NO)c1ccc(OCCCC2CCN(CCCOc3ccc(C(N)=NO)cc3)CC2)cc1` [Example 47, 4-{3-[4-(3-{4-[amino(hydroxyimino)methyl]phenoxy}propyl)-1-piperidinyl]propoxy}benzamide=oxime hydrochloride] gave a mice survived in series [1] of 80%.
Consider `N=C(N)c1ccc(OCCCC2CCN(CCCOc3ccc(C(=N)N)cc3)CC2)cc1` [Example 3, 4-{3-[4-(3-{4-[amino(imino)methyl]phenoxy}propyl)-1-piperidinyl]propoxy}benzamidine], for which the entries for the “Red blood cell count (RBC)” value in series [2] (setting [9]) and in series [2] (6.25 mg/kg subcutaneously once a day for 14 days) were 96.4 and 98.7, respectively. Further, the “Reticulocyte count (Reticulocyte)” value in series [2] (setting [9]) was 93.5.
As a reminder, the IC50 is the concentration that gives 50% inhibition. What is called CC50 is the concentration that lowers cell viability or growth by half. The compound `N=C(N)c1ccc(OCCCC2CCN(CCCOc3ccc(C(=N)N)cc3)CC2)cc1` [Example 4, 4-{3-[4-(3-{4-[amino(imino)methyl]phenoxy}propyl)-1-piperidinyl]propoxy}benzamidine hydrochloride] came in with an IC50 in series [3] not above 0.0039 µg/mL. In addition, in series [4], the “Red blood cell count (RBC)” value is reported as 94. This compound also displayed a CC50 at 3 days in series [5] of 25 µg/mL. Moreover, the appearance after storage entry in series [6] (60° C.) and in series [6] (room temperature) was “powder without any change in the appearance” throughout.
As a reminder, the MIC is the lowest concentration that inhibits growth of the organism. A high value points to weaker potency. On to `N=C(N)c1ccc(OCCCC2CCN(CCCOc3ccc(C(=N)N)cc3)CC2)cc1` [Example 10, 4-{3-[4-(3-{4-[amino(imino)methyl]phenoxy}propyl)-1-piperidinyl]propoxy}benzamidine trihydrochloride pentahydrate], for which, in series [7], the deliquescence after storage result is “did not deliquesce”. Also, the MIC in series [8] was 16 µg/mL.

For the origin of these results see US7700623B2, “Arylamidine derivative, salt thereof, and antifungal containing these” (Toyama Chemical Co., Ltd., priority 2004, dated 2010).
